The values below are quoted from earlier work in US12144796B2, “Formulations for treating cluster symptoms associated with autism spectrum disorder” (Ilera Therapeutics LLC, priority 2019, dated 2024).

Consider `CC12CCC(CC1)C(C)(C)O2` [Eucalyptol, 1,3,3-trimethyl-2-oxabicyclo[2.2.2]octane], for which the solubility in water entry is “insoluble in water”.
